According to PubChem BioAssay (NCI):
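Briefly, cells in 96-well plates were exposed to five compound concentrations for 48 h, and endpoints were estimated by linear interpolation. The concentration for full growth arrest is given as TGI.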

Tests used:
Experiment in all cases: NCI tumour cell line growth inhibition, 48 h
[1] = test system: KM20L2 colon
[2] = test system: SNB-78 CNS
[3] = test system: DLD-1 colon
[4] = test system: DMS 114 small cell lung
[5] = test system: M19-MEL melanoma
[6] = test system: LXFL 529 NSCLC
[7] = test system: HOP-18 NSCLC
[8] = test system: XF 498 CNS
[9] = test system: P388/ADR leukemia
[10] = test system: SN12K1 renal
[11] = test system: P388 leukemia

Structure (SMILES) | TGI [1] | TGI [2] | TGI [3] | TGI [4] | TGI [5] | TGI [6] | TGI [7] | TGI [8] | TGI [9] | TGI [10] | TGI [11]
CCCCCCC(C)OC(=O)/C=C(\CC(=O)OC(C)CCCCCC)C(=O)OC(C)CCCCCC (stereo not given) | > 100 µM | > 100 µM | > 100 µM | > 100 µM | > 100 µM | > 100 µM |  |  |  |  | 
O=c1c2ccccc2[nH]c2cc(O)cc(O)c12 |  | > 100 µM |  |  | > 100 µM | > 100 µM | > 100 µM | > 100 µM |  |  | 
COc1cc(C2c3cc4c(cc3[C@@H](Nc3cccc([N+](=O)[O-])c3)C3COC(=O)[C@H]23)OCO4)cc(OC)c1O (stereo not given in full) | > 42 µM | 53.9 µM | 17.1 µM | 9.18 µM | > 100 µM |  | 39.3 µM | > 40.2 µM | 5.58 µM | 10.3 µM | 
O=C1c2ccccc2C(=O)c2c(O)ccc(O)c21 |  | > 100 µM | > 100 µM | > 100 µM | 69.2 µM | > 100 µM |  |  |  |  | 
NC1(C(=O)O)CCCC1 | > 625 µM | > 444 µM | > 625 µM | > 625 µM | > 625 µM |  | > 625 µM | 6.25 µM | > 625 µM | > 625 µM | > 625 µM
